The values that follow are results of earlier work, collected in patent US20240093135A1, “BASE ELEMENT OF A MULTI-CHAMBER BIOCHIP, PRODUCTION OF THE MULTI-CHAMBER BIOCHIP, AND USE THEREOF FOR ESTABLISHING ORGAN AND DISEASE MODELS AND SUBSTANCE TESTS” (Dynamic42 GmbH, priority 2022, published 2024).

The conditions of the data set: PDMS chips, after 24 hours.

Regarding `CCCC1COC(Cn2cncn2)(c2ccc(Cl)cc2Cl)O1` (stereo not shown) [propiconazole], the “detectable share of the starting concentration in the culture medium” value is given as “less than 30%”.
